Data from paper PMC8395335, “Serotonergic–Muscarinic Interaction within the Prefrontal Cortex as a Novel Target to Reverse Schizophrenia-Related Cognitive Symptoms” (International Journal of Molecular Sciences, 2021).

Legend:
MK-801-treated mice [1] = assay: Y-maze test (spontaneous alternations), MK-801-induced deficits; type: in vivo
Experimental: (§1) Drugs were administered on two different schedules: (1) acute administration of compounds 45 min (WAY100635—5-HT1A antagonist) or 30 min (VU0357017, VU152100, VU0238429, and F15599) before MK-801 (also administered once 30 min before the test in Y-maze or T1 in NOR test); and (2) prolonged administration (once per day for 7 consecutive days) of the compounds and MK-801 with the last administration 24 h before the test (NOR test) or at the day of the test (Y-maze). […] Schedules of administration are presented graphically in Figure 2. The subeffective doses of the compounds for acute administration in the NOR test were chosen based on our previous research (see: [22, 23]) while dose-dependent studies of the activity of the compounds in reversing disruptions in the Y-maze or after prolonged administration along with MK-801 were performed within this study. Different vehicles were used throughout the study: (1) 0.9% NaCl and (2) 10% Tween 80. Vehicles were administered to all animals (e.g., control mice and MK-801-treated mice) on the same schedule as drugs were administered to the appropriate drug-treated groups of mice. Neither solvent exerted effects on animal behavior.
(§2) Male Albino Swiss mice (Charles River, Sulzfeld, Germany) weighing 20–25 g at the beginning of the experiments were used in the studies. The animals were housed in a room with a 12:12 h light-dark cycle at a temperature of 22 ± 1 °C with food and water available ad libitum. The experimental groups consisted of 8–10 animals. All drugs were administered intraperitoneally (i.p.) at a volume of 10 mL/kg. The behavioral experiments were performed by an observer who was blinded to the treatment. The procedures were conducted in accordance with the European Communities Council Directive of 22 September 2010 (2010/63/EU) and Polish legislation acts concerning animal experimentation and were approved by the II Local Ethics Committee by the Maj Institute of Pharmacology, Polish Academy of Sciences in Krakow (15/2020, 240/2020).
(§3) In acute experiments, the tested compounds (alone or in combination) were administered 30 min before MK-801 (0.3 mg/kg), which was administered 30 min before the test or training trial (T1) in the NOR test. In chronic experiments, the tested compounds (alone or in combination) and MK-801 were administered for seven days. Behavioral tests were performed on the eighth day.
The Y-maze was performed using the methods described by Miedel et al. and Kraeuter et al. with minor modifications. A black, wooden Y-shaped apparatus with equal length arms (labeled A, B, or C) spaced 120 apart was used in the behavioral experiment. Visual clues were placed inside the maze and mounted to the back wall of each arm. The experiment was performed in a well-lit room. The mice were placed in the same starting arm and were allowed to freely explore the maze for 8 min. After each trial, the maze was wiped clean. The sequence and the number of arm entries were recorded to calculate the percentage of spontaneous alternations using the following formula: [(Number of alternations)/(Total arm entries − 2)] × 100. An arm entry was scored if the animal entered the arm with all paws. Consecutive entries into three distinct arms were scored as an alternation (e.g., ACB, but not ACA) in which sequences could overlap (e.g., ACBACABAC represents […] alternations).

MK-801-treated mice [2] = assay: Novel object recognition (NOR) test, MK-801-induced deficits; type: in vivo
Experimental: as §1, §2, §3
The NOR test was performed as described previously. Briefly, the habituation, training and test trial were carried out in a dark room in a black, plastic rectangular arena illuminated with a 355 lux bulb. During the habituation trial, the animals were allowed to explore the arena in the absence of objects (10 min/day for 2 days). The next day, the training (T1) and test (T2) trials were performed. Throughout T1, mice were allowed to freely explore two identical objects (5 min), one of which was subsequently replaced by a novel object in T2 (1 h later, 5 min of exploration). Time spent exploring (i.e., sniffing or touching) the familiar (Tfamiliar) or novel object (Tnovel) was measured by a trained observer, and then the recognition index was calculated for each mouse [(Tnovel − Tfamiliar)/(Tfamiliar + Tnovel)] × 100.

[3] = Pharmacokinetic analysis of drug-drug interactions (plasma, FC concentration, FC penetration); type: in vivo, mice; conditions: Albino Swiss, mouse, in vivo, 30 min
Experimental: The experiment was performed using the methods described by Bridges et al. and in our previous studies.
The pharmacokinetic analysis was performed in the blood and prefrontal cortex. […] Plasma and FC samples were stored at −80 °C until analysis.
The investigated compounds were administered alone at the top dose (F15599—0.1 mg/kg, VU0357017—5 mg/kg, VU0152100—1 mg/kg, and VU0238429—5 mg/kg) and in combinations of muscarinic ligands at subeffective doses with F15599 at subeffective dose (F15599 + VU0357017 0.05 and 0.15 mg/kg, F15599 + VU0152100 0.05 and 0.05 mg/kg, F15599 + VU0238429 0.05 and 1 mg/kg). The FC and blood were collected on the eighth day, 30 min after administration. All mice were parallelly treated with MK-801 (0.3 mg/kg) for seven consecutive days.
On the day of analysis, frozen whole mouse brain tissues were weighed and homogenized in 1:2 (w/v) volumes of ice-cold acetonitrile containing 0.1% FA and the internal standard mix. Samples were homogenized using a Metal Bead Lysing Matrix, vortexed for 1 min, shaken for 20 min at 4 °C on Thermomixer C, and centrifuged at 14,000× g rpm for 20 min at 4 °C. Finally, 50 µL of supernatant were diluted with 0.1% FA in water (1:1, v/v) and analyzed using HPLC/MS/MS.
The sample extraction of plasma (20 μL) was performed after spiking with the internal standard mix using the protein precipitation method and three volumes of ice-cold acetonitrile containing 0.1% formic acid. The extract was vortexed, incubated on ice for 20 min and centrifuged at 14,000× g rpm for 20 min at 4 °C. The supernatant was diluted with 0.1% FA in water (1:1, v/v) and analyzed by means of HPLC/MS/MS using a QTRAP 4500 (AB Sciex) mass spectrometer in positive ion mode in Multiple Reaction Monitoring (MRM screening) coupled with UHPLC (NEXERA XR, Shimadzu). Chromatographic separation was achieved on a Synergi 4 µm Fusion-RP 80 A 50 × 2 mm (Phenomenex) column at a flow rate of 0.2 mL/min. The gradient program was as follows: 20% B (0.3 min), 20–100% B (1.7 min), 100% B (3 min), 100–20% B (0.1 min), 20% B (2 min), solvent A (95:5:0.1% formic acid in water:methanol) and solvent B (methanol containing 0.1% formic acid). The column temperature was set to 40 °C. Analyst software was used to control the instrument and collect data. The ion transfer tube temperature was 300 °C. The spray voltage, collision energy, declastering potential, and gas parameters were optimized to achieve the maximal response using the test compounds. Selected reaction monitoring was carried out using the transition parameters. Calibration curves were constructed, and a linear response was obtained in the range of 0.25–500 ng/mL (VU357017, VU0152100, and F15599) and 1.25–2500 ng/mL (VU0238429) by spiking known amounts of each compound in blank brain homogenates and plasma. For VU0357017 and F15599 IS VU0152100 was used as internal standard. Sample concentration of internal standard was 100 ng/mL for IS VU0238429 and 50 ng/mL for IS VU0152100.
Brain penetration was calculated as FC/plasma ratio × 100%.

## C[C@]12N[C@H](Cc3ccccc31)c1ccccc12 [MK-801]
MK-801-treated mice [1]; acute MK-801 (0.3 mg/kg) 30 min before test
  Disruption of spontaneous alternations in the Y-maze: induced typical disruption
MK-801-treated mice [1]; prolonged MK-801, test performed 24 h after the last administration
  Disruptive effect on animals' behavior in Y-maze: lack of MK-801 disruptive effect
MK-801-treated mice [2]; acute MK-801 (0.3 mg/kg) 30 min before T1
  Disruption in the recognition index (NOR): induced typical disruption
MK-801-treated mice [2]; seven days of MK-801 administration
  Disruption in the recognition index (NOR): induced a typical disruption

## COc1ccc(CNC(=O)c2sc3nc(C)cc(C)c3c2N)cc1 [VU0152100]
MK-801-treated mice [1]; 7 days, F15599 0.025 mg/kg with VU0152100 0.05 mg/kg (subeffective doses)
  Reversal of MK-801-induced disruptions in Y-maze by combined administration: did not reverse
MK-801-treated mice [1]; acute, 0.1-5 mg/kg i.p.
  Reversal of MK-801-induced reduction in spontaneous alternations in the Y-maze: No efficacy
MK-801-treated mice [1]; acute, F15599 0.1 mg/kg with VU0152100 1 mg/kg, MK-801-treated
  Effect of combined administration on spontaneous alternations in the Y-maze test: no effect
MK-801-treated mice [2]; 7 days with MK-801, 0.1 mg/kg i.p.
  Reversal of MK-801-induced deficits in the NOR test (recognition index): activity of VU0152100 was observed
MK-801-treated mice [2]; 7 days with MK-801, 1 mg/kg
  Reversal of MK-801-induced deficits in the NOR test (recognition index): activity of VU0152100 was observed
MK-801-treated mice [2]; 7 days with MK-801, dose of 0.05
  Reversal of MK-801-induced deficits in the NOR test (recognition index): ineffective
MK-801-treated mice [2]; 7 days, F15599 0.05 mg/kg with VU0152100 0.05 mg/kg (subeffective doses)
  Reversal of MK-801-induced disruptions in NOR test by combined administration: reversed
MK-801-treated mice [2]; acute, 1 mg/kg i.p., alone
  Effect of top dose on MK-801-induced deficits in the NOR test: pro-cognitive effect
MK-801-treated mice [2]; acute, subeffective doses, F15599 with VU0152100
  Effect of combined administration on MK-801-induced memory deficits in the NOR test: no effect
[3]
  Increase of FC penetration after prolonged administration compared to acute: ca. 50%
  Increase of FC penetration when administered concomitantly with F15599: more than 50%

## COc1ccccc1N1CCN(CCN(C(=O)C2CCCCC2)c2ccccn2)CC1 [WAY100635]
MK-801-treated mice [2]; acute, WAY100635 0.1 mg/kg 15 min before VU0152100 (1 mg/kg)
  Effect of WAY100635 on the pro-cognitive effect of muscarinic ligand in the NOR test: reversed the pro-cognitive effect
MK-801-treated mice [2]; acute, WAY100635 0.1 mg/kg 15 min before VU0238429 (5 mg/kg)
  Effect of WAY100635 on the pro-cognitive effect of muscarinic ligand in the NOR test: reversed the pro-cognitive effect
MK-801-treated mice [2]; acute, WAY100635 0.1 mg/kg 15 min before VU0357017 (5 mg/kg)
  Effect of WAY100635 on the pro-cognitive effect of muscarinic ligand in the NOR test: reversed the pro-cognitive effect
